{"source": "a melting point compilation (Tetko et al.; mined from patent text by program, amines drawn as free bases though some values may be those of a salt)"}
{"units": {"melting point": "°C"}}
{"smiles": "COC(=O)N(CC(=O)O)C(=O)c1c(Cl)ccc2c(C(F)(F)F)c(OC)ccc12", "melting point": "162 to 165"}
{"smiles": "Cc1nnc(-c2ccc3ncn(-c4ccc(S(C)=O)cc4)c3c2)o1", "note": "(configuration not stated)", "melting point": "246 to 247"}
{"smiles": "c1ccc(Sc2cc3cc4cc5ccccc5cc4cc3cc2Sc2ccccc2)cc1", "melting point": "> 260"}
{"smiles": "COC(=O)C(=CN(C)C)N(C)c1cc(-c2ccc(Cl)cc2)on1", "melting point": 190}
{"smiles": "CC1(N2C(=O)c3cccc([N+](=O)[O-])c3C2=O)CCC(=O)NC1=O", "note": "(configuration not stated)", "melting point": "265 to 266"}
{"smiles": "Nc1ccc2c(CCl)cc(O)nc2n1", "melting point": "> 280"}
{"smiles": "NC(=O)c1cncn1C(c1ccccc1)c1ccccc1", "melting point": 153}
{"smiles": "CC(C)(C)CN1C(=O)C(=O)N(c2cccnc2)C1=S", "melting point": "111 to 113"}
{"smiles": "ON=CC1=NCCCS1", "melting point": "114 to 115"}
{"smiles": "COc1ccc(-c2sc3ccccc3c2Oc2ccc(OCc3ccccc3)cc2)cc1F", "melting point": "122 to 123"}
{"smiles": "N=C(N)Nc1ccc(CCCC(=O)NC(COCc2ccccc2)C(=O)NCCCC(CCCNC(=O)OCc2ccccc2)NC(=O)OCc2ccccc2)cc1", "note": "(configuration not stated)", "melting point": "157 to 160"}
{"smiles": "CSc1nccn1N=Cc1cc(C(C)(C)C)c(O)c(C(C)(C)C)c1", "melting point": "181 to 183"}
{"smiles": "Cc1cccc(NC(=O)NC2N=C(c3ccccc3)c3ccccc3N(Cc3cc(C)ccn3)C2=O)c1", "note": "(racemic)", "melting point": "212 to 213"}
{"smiles": "CCCc1c(OCCCSc2c(C(C)C)nn3ccccc23)ccc(C(C)=O)c1O", "melting point": "95 to 95.5"}
{"smiles": "CCOC(=O)C1(C(=O)OCC)CCC2(CC1)c1ccc(O)cc1CCN2C(=O)OCc1ccccc1", "melting point": "123 to 124"}
{"smiles": "Cc1nc2c(N)nc3ccccc3c2n1CCOCc1ccccc1", "melting point": "159 to 160"}
{"smiles": "CCCn1c(=O)[nH]c2ccc(C(=O)c3nc(Br)c4ccccn34)cc2c1=O", "melting point": 322}
{"smiles": "COc1cccc(-c2cn(C)cc(-c3cccc(C(F)(F)F)c3)c2=O)c1", "melting point": "113 to 115"}
{"smiles": "CCOC(=O)c1ccc(-c2cc3c(NCc4cccc(Cl)c4)ncnc3[nH]2)cc1", "melting point": "305 to 306"}
{"smiles": "COc1ccc(SC2CC(=O)N2CC(=O)O)cc1", "note": "(configuration not stated)", "melting point": "78 to 79"}
{"smiles": "CCCc1nc2cnc3ccccc3c2n1CCCCNS(C)(=O)=O", "melting point": "133 to 135"}
{"smiles": "O=C(O)c1ccc(COCc2csc3nc(C(=O)O)[nH]c(=O)c23)cc1", "melting point": 248}
{"smiles": "COCCOCCOCCOCC(N)C(=O)O", "note": "(configuration not stated)", "melting point": "184 to 185"}
{"smiles": "c1ccc(C(c2ccccc2)c2ccncc2)cc1", "melting point": "124 to 126"}
{"smiles": "C=CC(=O)CCC1=CC(=O)NC1=O", "melting point": "77 to 78"}
{"smiles": "CCCCc1ccc2nc(Cl)cn2n1", "melting point": "61 to 63"}
{"smiles": "Cn1nc(C(F)(F)F)c(CS(=O)(=O)C2=NOC(C)(C)C2)c1OC(F)F", "melting point": "129 to 130"}
{"smiles": "Cc1ccc(C(=O)NCCc2ccccc2Cl)cc1", "melting point": "106 to 108"}
{"smiles": "Cc1nc(N)c2nc(CNC(=O)C3CC3)n(CC(C)C)c2c1C", "melting point": "182 to 184"}
{"smiles": "COc1ccc2[nH]c3cc(-c4cccc([N+](=O)[O-])c4)c4c(c3c2c1)C(=O)NC4=O", "melting point": "> 340"}
{"smiles": "CC(C)(C)c1cc(CO)c(O)c(CO)c1", "melting point": "68 to 73"}
{"smiles": "CCCc1c(OCCCCCOc2ccc3cc(OCC(=O)OCC)ccc3c2CCC(=O)OCC)ccc2c1OCCC2=O", "melting point": "100 to 102"}
{"smiles": "CCNc1nc(-c2ccccc2)ncc1[N+](=O)[O-]", "melting point": "136 to 137"}
{"smiles": "O=Cc1cc2cccc3ccc4cccc1c4c32", "melting point": "172 to 174"}
{"smiles": "OC1c2ccc(Cl)cc2SC1Cn1ccnc1", "note": "(configuration not stated)", "melting point": "164 to 165"}
{"smiles": "COc1cc2c(cc1Nc1ncc(Cl)c(Nc3ccc(N4CCOCC4)cc3OC)n1)C(C)(C)CCC(=O)N2", "melting point": "246 to 248"}
{"smiles": "O=[N+]([O-])c1ccc(-c2nc(-c3ccco3)no2)cc1", "melting point": "168 to 170"}
{"smiles": "O=C(Nc1ccc(Oc2ccnc(N3CCCCC3)n2)c2ccccc12)c1cc(F)cc(N2CCOCC2)c1", "melting point": "190 to 191"}
{"smiles": "COC1=CC(=O)CC(NC(=O)Nc2ccccc2)C1", "note": "(configuration not stated)", "melting point": "183 to 185"}
{"smiles": "CCCc1ccnc2c(=O)[nH]c(-c3cc([N+](=O)[O-])ccc3OCC)nc12", "melting point": "257 to 259"}
{"smiles": "CCc1nc2c(C)c(C#N)c(C)cc2n1-c1ccc(CCNC(=O)NS(=O)(=O)c2ccc(C)cc2)cc1", "melting point": "140 to 145"}
{"smiles": "CCCCNC(=O)c1nc2cnn(CC)c2nc1OCC", "melting point": "115 to 117"}
{"smiles": "Fc1cc2c(cc1F)CC(n1c(-c3nnn[nH]3)c[nH]c1=S)C2", "melting point": "142 to 147"}
{"smiles": "O=C(O)C1CC1(C(=O)O)c1cccc([N+](=O)[O-])c1", "note": "(configuration not stated)", "melting point": "167 to 170"}
{"smiles": "CN(c1cc(OC(F)(F)F)cc2cc(C3=NCCS3)[nH]c12)S(=O)(=O)c1cccs1", "melting point": "179 to 180"}
{"smiles": "Cc1nn(-c2ccccn2)c2[nH]c3ccccc3c(=O)c12", "melting point": "199 to 200"}
{"smiles": "CC1(C)C(=O)Nc2ccc(C(=O)O)cc21", "melting point": "> 250"}
{"smiles": "CN1CC[C@@H]2CC(=O)c3cccc(F)c3[C@@H]2C1", "note": "(relative stereo)", "melting point": "> 220"}
{"smiles": "CCCCCc1cnc(-c2ccc(SC)cc2)nc1", "melting point": 52}
{"smiles": "Cc1cccn2c3c(nc12)-c1ccccc1C(=O)C3=O", "melting point": "> 260"}
{"smiles": "O=S(=O)(Oc1ccccc1)c1ccc(O)cc1", "melting point": "114 to 116"}
{"smiles": "Cn1c(=O)oc(=O)c2cc(F)ccc21", "melting point": 133}
{"smiles": "O=C(O)CCC(CC1(C(=O)NC2CCC(C(=O)OCc3ccccc3)CC2)CCCC1)C(=O)OCc1ccccc1", "note": "(configuration not stated)", "melting point": "103 to 104"}
{"smiles": "O=C(O)/C=C/c1cccc(-c2nc3c(=O)n(CC4CCCCC4)c(=O)n(CC4CCCCC4)c3[nH]2)c1", "melting point": "> 350"}
{"smiles": "COc1ccccc1N1CCN(C(=O)c2ccccc2C(c2ccc(OC(C)C)cc2)c2ccc(OC(C)C)cc2)CC1", "melting point": "120 to 121"}
{"smiles": "CCC(=O)Nc1nn(C)c2c1sc1ccccc12", "melting point": "88 to 89"}
{"smiles": "CNC(=O)C(Cc1ccc(Br)cc1)NC(=O)Nc1n[nH]c(=S)s1", "note": "(configuration not stated)", "melting point": "238 to 241"}
{"smiles": "COc1ccc(CN(C)CCCCc2ccc(NC(=O)c3cccc4c(=O)c5cccc(N)c5[nH]c34)cc2)cc1OC", "melting point": 250}
{"smiles": "CC(=O)NCC1CN(c2c(F)c(N)c3c(=O)c(C(=O)O)cn(C4CC4)c3c2F)CCO1", "note": "(configuration not stated)", "melting point": "228 to 229"}
{"smiles": "O=S(=O)(c1ccc(O)cc1)c1ccccn1", "melting point": 148}
{"smiles": "CCOC(=O)c1cc2c(C)c([N+](=O)[O-])c(C)c(C)c2o1", "melting point": "126 to 128"}
{"smiles": "CN1C(=O)N(CC(COc2ccc(-c3ccc(C#N)cc3)cc2)N(O)C=O)C(=O)C1(C)C", "note": "(configuration not stated)", "melting point": "65 to 67"}
{"smiles": "CC(=O)c1ccc2ccc3c(c2c1)C(CCl)CN3C(=O)OC(C)(C)C", "note": "(configuration not stated)", "melting point": "98 to 100"}
{"smiles": "COc1cccc(C(O)CN(C)Cc2cc3c(=O)c(C(=O)NCc4ccc(Cl)cc4)cn(C)c3o2)c1", "note": "(configuration not stated)", "melting point": "116 to 120"}
{"smiles": "CCCc1c(C(=O)C(C)C)c2ccc(NC(=O)NC)cc2n1Cc1ccccc1Cl", "melting point": "106 to 108"}
{"smiles": "COc1ccc(CC2SC(=O)NC2=O)cc1C(=O)NCc1ccc(C(F)(F)F)cc1", "note": "(configuration not stated)", "melting point": "176 to 178"}
{"smiles": "C#CCC(CCc1ccccc1)(C(N)=S)c1cccnc1", "note": "(configuration not stated)", "melting point": "73 to 74"}
{"smiles": "CCCCNS(=O)(=O)CC(O)C(O)C(CC1CCCCC1)NC(=O)c1ccncc1", "note": "(configuration not stated)", "melting point": "168 to 186"}
{"smiles": "CCOC(=O)CC(NC(=O)CNC(=O)c1csc(N=C2NCCN2)n1)c1cccnc1", "note": "(racemic)", "melting point": "198 to 199"}
{"smiles": "CN(Cc1ccc(C(=O)O)cc1)c1ccc2c(c1)C(C)(C)CCC2(C)C", "melting point": "141 to 144"}
{"smiles": "COc1ccc(C(=O)NC(=O)Nc2ccc3c(c2)NC(=O)/C3=C/c2ccco2)cc1", "melting point": "278 to 283"}
{"smiles": "NC(Cc1ccccc1)C(=O)NC1CCN(c2nc3c(cc2F)c(=O)c(C(=O)O)cn3C2CC2)C1", "note": "(configuration not stated)", "melting point": "216 to 219"}
{"smiles": "Nc1c(F)c(N2CCC3(CC3N)C2)c(F)c2c1c(=O)c(C(=O)O)cn2[C@@H]1C[C@@H]1F", "note": "(some centres not stated)", "melting point": "180 to 181"}
{"smiles": "OC[C@H]1OC[C@@H](n2c(Br)nc3cc(Cl)c(Cl)cc32)[C@H](O)[C@@H]1O", "melting point": "207 to 209"}
{"smiles": "Cn1cc(C(=O)NCc2ccc(Cl)cc2)c(=O)c2cc(CCl)ccc21", "melting point": "241 to 242"}
{"smiles": "Cc1c(NC(=O)CC(C)(C)C)cc2c(c1C)OC(C)(C)C2CCc1ccccc1", "note": "(configuration not stated)", "melting point": "158 to 159"}
{"smiles": "CCCCc1c(C(=O)c2cccnc2)c2ccccc2n1C", "melting point": "89 to 90"}
{"smiles": "CC(C)(C)OC(=O)Nc1ccc(C#Cc2ccc(F)cc2)cc1NC(=O)CC(=O)c1ccnc(-n2ccnc2)c1", "melting point": 169}
{"smiles": "CCCC(CCC)NC(=O)Nc1ccc(OC)cc1OC", "melting point": "172 to 173"}
{"smiles": "OCCCON=Cc1cn(Cc2ccccc2)c2ccccc12", "melting point": "76.4 to 77.7"}
{"smiles": "COc1ccc(-c2csc(C(=O)Nc3cc4ccccc4cn3)n2)cc1OC", "melting point": "196 to 202"}
{"smiles": "Nc1nc(O)c2c(n1)NC[C@H](CCc1ccc(Br)cc1)C2", "melting point": "275 to 283"}
{"smiles": "O=CN1CCC(C(=O)O)=Cc2cc(Br)ccc21", "melting point": "248 to 250"}
{"smiles": "O=C1Nc2ccc(F)cc2C1CCCCN1CCN(c2ccc(F)cc2)CC1", "note": "(configuration not stated)", "melting point": "135 to 137"}
{"smiles": "O=C1OC(c2cccc3ccccc23)=NC1=Cc1ccccc1", "melting point": "134 to 137"}
{"smiles": "CC(=O)NC1=C(C#N)C(c2cccc([N+](=O)[O-])c2)=C2C=Cc3ccccc3C2O1", "note": "(configuration not stated)", "melting point": "234 to 236"}
{"smiles": "CCOC(OCC)(c1ccc(F)cc1)C1CCN(CCc2c(C)nc3scc(C)n3c2=O)CC1", "melting point": 116}
{"smiles": "CN(C)S(=O)(=O)c1ccc(C(=O)O)c(C(F)(F)F)c1", "melting point": 189}
{"smiles": "CCOC(=O)C(=CNc1nnn[nH]1)C(=O)c1cc(F)c(Cl)nc1Cl", "melting point": "150 to 152"}
{"smiles": "O=S(=O)(CCCl)C1=NN(S(=O)(=O)CCCl)CS1", "melting point": 143}
{"smiles": "COC(=O)c1cc([N+](=O)[O-])c(O)c([N+](=O)[O-])c1", "melting point": "110 to 115"}
{"smiles": "CNc1nc(Cl)cc(NS(=O)(=O)c2ccc(F)cc2)n1", "melting point": "121 to 123"}
{"smiles": "CCCOc1c(C=NO)c(=O)n(C)c(=O)n1C", "melting point": "119 to 120"}
{"smiles": "Cn1c(C(F)(F)F)cc(=O)n(-c2cc(OS(=O)(=O)Cl)c(Cl)cc2F)c1=O", "melting point": "133 to 135"}
{"smiles": "COc1ccc(OC)c(S(=O)(=O)c2ccc(Cl)cc2NC(=O)N[C@@H](Cc2ccc(NC(=O)c3c(Cl)cccc3Cl)cc2)C(=O)O)c1", "melting point": 180}
{"smiles": "NC(=O)c1sc(-c2ccccc2)cc1N", "melting point": "180 to 182"}
{"smiles": "COc1cc(-n2nc(C(=O)N(C)C)c3c4ccc(Cl)cc4n(C)c3c2=O)ccn1", "melting point": "237 to 238"}
